Experimental data: patent US10670605B2, “Cysteine reactive probes and uses thereof” (The Scripps Research Institute, priority 2015, dated 2020)
Counter-ions that a name gives are not always drawn.

Key:
Assay type in all cases: cell-based
primary human T cells = assay: T cell activation markers CD25 and CD69 (flow cytometry)
Experimental: 96-well plates were coated with anti-CD3 (1:200; BioXcell) and anti-CD28 (1:500; 302933; BioLegend) in PBS (100 μL/well) overnight at 4° C. The plates were then washed twice with PBS and to each well was added 500,000 primary T cells in 100 μL of RPMI supplemented with 10% FBS, glutamine, and Pen-Strep. Cells were then treated with 100 μL of media containing compound at the indicated concentrations (final well volume of 200 μL). Cells were left at 37° C. in a 5% CO2 incubator for the indicated periods of time and harvested by centrifugation (500 g, 8 min, 4° C.), followed by washing with PBS.
Flow cytometry analysis of cell surface antigens was performed with the following antibodies: Pacific Blue-conjugated anti-CD8 (1:25 dilution; clone RPA-T8; BD Biosciences), APC-conjugated anti-CD4 (1:25 dilution; clone RPA-T4; eBioscience), phycoerythrin-conjugated anti-CD25 (1:25 dilution; clone BC96; eBioscience or PC61; BioLegend (PKCθ studies)), FITC-conjugated anti-CD69 (1:25 dilution; clone FN50; eBioscience). All antibodies were diluted in 1% FBS in PBS, and 50 μL of the stain solution was added to each well. […] Flow cytometry acquisition was performed with BD FACSDivam-driven BD™ LSR II flow cytometer (Becton, Dickinson and Company). Data was then analyzed with FlowJo software (Treestar Inc.). Data represent mean±SE for four-five experiments per group.

PKCθ-CD28 interaction = biological target: T1, PKCθ-CD28 interaction (Mus musculus, UniProt Q02111); assay: PKCθ immunoprecipitation with CD28 and immunoblot; conditions: 50 μM, mouse T cells
T1 construct: endogenous in cells; host or cells: peripheral CD4+ T cells from C57BL/6 mice
From the text: FIG. 32A-FIG. 32G exemplify DMF-sensitive C14/C17 residues in PKCθ are important for CD28 interactions and T cell activation. FIG. 32A illustrates representative MS1 profiles for DMF-sensitive (C14/C17) and -insensitive (C322) Cys residues in PKCθ. FIG. 32B exemplifies sequence conservation analysis of human and mouse PKCθ, human PKCδ, and human PKCε (SEQ ID NOS 865-868, respectively, in order of appearance). Shown in red are C14 and C17. FIG. 32C illustrates location of DMF-sensitive C14 and C17 residues in the C2 domain of PKCθ (PDB accession number 2ENJ). […] Immunoprecipitations (IPs) were performed in the cell lysates with anti-CD28 or control IgG antibodies and IPs blotted for CD28 or PKCθ. FIG. 32E illustrates Co-IP of WT PKCθ and the C14S/C17S (2CS) PKCθ mutant with CD28. PKCθ(−/−) T cells were reconstituted with empty vector (EV), WT PKCθ, or the 2CS PKCθ mutant. FIG. 32F and FIG. 32 G illustrate PKCθ(−/−) T cells reconstituted with WT or 2CS PKCθ were assayed for activation potential by measuring CD25 expression (FIG. 32F) and IL-2 (FIG. 32G). For FIG. 32E-FIG. 32G, PKCθ(−/−) T cell cultures were pre-activated with plate-coated anti-CD3+anti-CD28 for 24 h before retroviral transduction with empty vector, WT PKCθ, or the 2CS PKCθ mutant. […]

[1] = biological target: cysteines in MDA-MB-231 and Ramos cells (Homo sapiens, UniProt Q13867); assay: Competitive isoTOP-ABPP in situ (fragment-treated cells); conditions: 200 μM, insitu, 231
Sequence of cysteines in MDA-MB-231 and Ramos cells (Homo sapiens, UniProt Q13867) (Q13867 whole entry, the tested form may be a part): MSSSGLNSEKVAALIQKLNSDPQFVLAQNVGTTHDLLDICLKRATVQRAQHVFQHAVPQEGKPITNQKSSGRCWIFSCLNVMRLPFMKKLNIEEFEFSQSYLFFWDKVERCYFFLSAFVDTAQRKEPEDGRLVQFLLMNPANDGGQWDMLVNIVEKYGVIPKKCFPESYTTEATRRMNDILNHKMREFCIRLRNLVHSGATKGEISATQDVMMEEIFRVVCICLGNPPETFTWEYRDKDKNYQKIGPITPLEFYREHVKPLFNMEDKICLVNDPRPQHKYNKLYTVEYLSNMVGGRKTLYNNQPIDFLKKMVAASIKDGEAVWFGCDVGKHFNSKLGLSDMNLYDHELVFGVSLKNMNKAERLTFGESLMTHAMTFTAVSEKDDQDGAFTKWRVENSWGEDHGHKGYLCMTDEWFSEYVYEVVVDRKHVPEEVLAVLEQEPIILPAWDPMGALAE

[2] = biological target: cysteines in MDA-MB-231 and Ramos cells (Homo sapiens, UniProt Q5T1V6); assay: as above; conditions: 200 μM, insitu, 231
Sequence of cysteines in MDA-MB-231 and Ramos cells (Homo sapiens, UniProt Q5T1V6) (Q5T1V6 whole entry): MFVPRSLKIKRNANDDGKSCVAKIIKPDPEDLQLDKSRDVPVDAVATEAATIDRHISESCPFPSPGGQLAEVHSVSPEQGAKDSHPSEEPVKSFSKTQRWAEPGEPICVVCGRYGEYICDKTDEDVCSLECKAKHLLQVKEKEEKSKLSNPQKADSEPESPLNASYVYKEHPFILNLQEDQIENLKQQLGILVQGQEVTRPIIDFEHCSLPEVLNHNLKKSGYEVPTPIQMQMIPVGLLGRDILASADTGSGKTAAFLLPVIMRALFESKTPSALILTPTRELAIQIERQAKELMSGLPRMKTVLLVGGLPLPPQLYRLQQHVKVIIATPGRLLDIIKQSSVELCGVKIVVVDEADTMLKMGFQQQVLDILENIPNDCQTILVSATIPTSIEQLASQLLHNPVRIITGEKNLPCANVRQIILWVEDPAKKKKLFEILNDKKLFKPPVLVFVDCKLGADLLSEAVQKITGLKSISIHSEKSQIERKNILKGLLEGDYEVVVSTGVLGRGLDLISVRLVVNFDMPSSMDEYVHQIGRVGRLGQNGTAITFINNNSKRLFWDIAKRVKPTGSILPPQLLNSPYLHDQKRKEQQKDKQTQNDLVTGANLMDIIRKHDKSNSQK

[3] = biological target: cysteines in MDA-MB-231 and Ramos cells (Homo sapiens, UniProt Q8IV53); assay: as above; conditions: 200 μM, insitu, ramos
Sequence of cysteines in MDA-MB-231 and Ramos cells (Homo sapiens, UniProt Q8IV53) (Q8IV53 whole entry): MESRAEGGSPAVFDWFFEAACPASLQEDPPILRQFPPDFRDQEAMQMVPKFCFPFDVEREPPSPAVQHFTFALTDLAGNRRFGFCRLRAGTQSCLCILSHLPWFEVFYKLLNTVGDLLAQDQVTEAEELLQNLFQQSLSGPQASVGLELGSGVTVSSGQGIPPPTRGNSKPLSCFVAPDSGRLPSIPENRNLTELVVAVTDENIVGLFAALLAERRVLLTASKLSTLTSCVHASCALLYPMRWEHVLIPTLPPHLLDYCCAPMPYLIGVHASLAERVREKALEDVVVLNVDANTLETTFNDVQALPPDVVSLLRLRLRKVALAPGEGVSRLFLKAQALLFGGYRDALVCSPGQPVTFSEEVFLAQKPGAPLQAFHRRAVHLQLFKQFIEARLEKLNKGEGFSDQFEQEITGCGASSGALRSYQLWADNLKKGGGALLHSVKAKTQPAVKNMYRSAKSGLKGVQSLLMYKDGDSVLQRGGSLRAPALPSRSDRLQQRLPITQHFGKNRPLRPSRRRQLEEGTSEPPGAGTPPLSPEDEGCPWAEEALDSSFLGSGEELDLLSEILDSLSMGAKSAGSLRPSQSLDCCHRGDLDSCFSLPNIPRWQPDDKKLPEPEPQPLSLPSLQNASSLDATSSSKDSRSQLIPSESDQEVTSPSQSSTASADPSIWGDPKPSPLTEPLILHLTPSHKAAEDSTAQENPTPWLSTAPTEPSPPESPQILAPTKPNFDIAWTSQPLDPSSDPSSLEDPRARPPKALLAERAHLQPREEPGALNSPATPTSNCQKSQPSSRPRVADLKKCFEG

[4] = biological target: cysteines in MDA-MB-231 and Ramos cells (Homo sapiens, UniProt Q9P0K7); assay: as above; conditions: 100 μM in situ 231
Sequence of cysteines in MDA-MB-231 and Ramos cells (Homo sapiens, UniProt Q9P0K7) (Q9P0K7 whole entry): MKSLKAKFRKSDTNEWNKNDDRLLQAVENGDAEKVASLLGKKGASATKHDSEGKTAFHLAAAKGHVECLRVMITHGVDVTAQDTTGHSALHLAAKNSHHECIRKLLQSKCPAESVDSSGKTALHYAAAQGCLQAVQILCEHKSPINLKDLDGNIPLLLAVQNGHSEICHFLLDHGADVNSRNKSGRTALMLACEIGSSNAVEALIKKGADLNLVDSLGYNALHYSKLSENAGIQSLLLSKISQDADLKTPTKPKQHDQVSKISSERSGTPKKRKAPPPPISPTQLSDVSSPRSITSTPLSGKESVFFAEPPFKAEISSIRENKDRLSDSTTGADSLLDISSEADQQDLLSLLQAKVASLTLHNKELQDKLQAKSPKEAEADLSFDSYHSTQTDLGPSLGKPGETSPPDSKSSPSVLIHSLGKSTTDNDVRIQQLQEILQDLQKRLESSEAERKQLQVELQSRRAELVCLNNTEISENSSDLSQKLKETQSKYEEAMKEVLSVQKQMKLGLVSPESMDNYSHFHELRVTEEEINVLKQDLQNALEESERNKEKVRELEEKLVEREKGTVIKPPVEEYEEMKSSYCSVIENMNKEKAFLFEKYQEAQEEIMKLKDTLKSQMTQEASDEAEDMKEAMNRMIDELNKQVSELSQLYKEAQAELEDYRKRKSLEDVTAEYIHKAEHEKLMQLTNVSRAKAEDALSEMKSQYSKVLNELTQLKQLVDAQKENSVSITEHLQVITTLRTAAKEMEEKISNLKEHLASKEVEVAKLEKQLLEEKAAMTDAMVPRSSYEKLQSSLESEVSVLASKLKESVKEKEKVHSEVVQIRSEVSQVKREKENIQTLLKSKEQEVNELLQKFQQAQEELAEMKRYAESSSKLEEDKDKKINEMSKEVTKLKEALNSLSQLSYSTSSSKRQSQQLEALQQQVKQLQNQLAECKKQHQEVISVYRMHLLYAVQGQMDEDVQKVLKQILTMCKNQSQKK

[5] = biological target: cysteines in MDA-MB-231 and Ramos cells (Homo sapiens, UniProt P53992); assay: as above; conditions: 200 μM, insitu, 231
Sequence of cysteines in MDA-MB-231 and Ramos cells (Homo sapiens, UniProt P53992) (P53992 whole entry): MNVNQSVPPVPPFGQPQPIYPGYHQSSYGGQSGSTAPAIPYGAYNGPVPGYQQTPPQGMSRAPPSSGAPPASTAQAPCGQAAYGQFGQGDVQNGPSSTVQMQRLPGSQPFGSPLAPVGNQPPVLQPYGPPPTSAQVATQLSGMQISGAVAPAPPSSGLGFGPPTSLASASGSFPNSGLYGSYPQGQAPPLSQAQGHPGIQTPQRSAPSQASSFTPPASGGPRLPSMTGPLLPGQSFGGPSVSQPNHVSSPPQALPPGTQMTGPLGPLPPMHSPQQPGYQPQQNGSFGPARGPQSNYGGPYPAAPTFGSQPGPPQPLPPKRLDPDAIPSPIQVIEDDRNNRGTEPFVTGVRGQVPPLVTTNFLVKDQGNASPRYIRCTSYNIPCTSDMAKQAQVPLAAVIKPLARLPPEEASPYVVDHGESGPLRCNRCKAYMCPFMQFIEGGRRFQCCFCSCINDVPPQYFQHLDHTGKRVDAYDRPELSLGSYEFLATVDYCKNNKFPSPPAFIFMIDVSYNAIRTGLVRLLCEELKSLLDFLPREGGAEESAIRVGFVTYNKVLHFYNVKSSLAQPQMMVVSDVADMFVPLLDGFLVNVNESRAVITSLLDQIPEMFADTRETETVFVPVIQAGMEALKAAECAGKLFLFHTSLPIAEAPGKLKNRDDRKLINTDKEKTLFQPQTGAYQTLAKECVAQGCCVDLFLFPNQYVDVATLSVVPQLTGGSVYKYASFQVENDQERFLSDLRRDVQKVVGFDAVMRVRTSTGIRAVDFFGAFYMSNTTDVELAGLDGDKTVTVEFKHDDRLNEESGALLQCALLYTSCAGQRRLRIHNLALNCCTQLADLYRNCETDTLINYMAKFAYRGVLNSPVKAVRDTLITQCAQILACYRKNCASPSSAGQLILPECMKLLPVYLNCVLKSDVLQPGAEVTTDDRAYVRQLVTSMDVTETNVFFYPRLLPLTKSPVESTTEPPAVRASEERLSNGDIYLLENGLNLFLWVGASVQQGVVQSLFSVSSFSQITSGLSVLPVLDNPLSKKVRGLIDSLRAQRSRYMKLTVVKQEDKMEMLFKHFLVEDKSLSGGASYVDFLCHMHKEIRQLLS

[6] = biological target: cysteines in MDA-MB-231 and Ramos cells (Homo sapiens, UniProt Q9UHQ1); assay: as above; conditions: 200 μM, insitu, ramos
Sequence of cysteines in MDA-MB-231 and Ramos cells (Homo sapiens, UniProt Q9UHQ1) (Q9UHQ1 whole entry, the tested form may be a part): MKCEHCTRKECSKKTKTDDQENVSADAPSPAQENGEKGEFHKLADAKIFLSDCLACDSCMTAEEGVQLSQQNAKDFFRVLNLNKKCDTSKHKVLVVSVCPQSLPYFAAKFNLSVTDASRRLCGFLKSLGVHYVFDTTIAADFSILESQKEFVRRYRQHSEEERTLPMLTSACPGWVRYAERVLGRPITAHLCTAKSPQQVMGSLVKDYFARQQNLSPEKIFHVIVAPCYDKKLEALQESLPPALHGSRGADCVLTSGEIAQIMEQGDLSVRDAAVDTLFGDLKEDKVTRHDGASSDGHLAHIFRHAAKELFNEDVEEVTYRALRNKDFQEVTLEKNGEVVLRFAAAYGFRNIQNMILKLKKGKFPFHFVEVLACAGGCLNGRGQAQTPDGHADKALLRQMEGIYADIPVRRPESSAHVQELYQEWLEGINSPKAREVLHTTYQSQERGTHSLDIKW

[7] = biological target: cysteines in MDA-MB-231 and Ramos cells (Homo sapiens, UniProt Q8WUM4); assay: as above; conditions: cysteine Q8WUM4_C90; fragment 200 μM, in situ, 231 (MDA-MB-231) cells
[8] = biological target: cysteines in MDA-MB-231 and Ramos cells (Homo sapiens, UniProt Q96IV0); assay: as above; conditions: cysteine Q96IV0_C309; fragment 200 μM, in situ, ramos cells
Sequence of cysteines in MDA-MB-231 and Ramos cells (Homo sapiens, UniProt Q96IV0) (Q96IV0 whole entry, the tested form may be a part): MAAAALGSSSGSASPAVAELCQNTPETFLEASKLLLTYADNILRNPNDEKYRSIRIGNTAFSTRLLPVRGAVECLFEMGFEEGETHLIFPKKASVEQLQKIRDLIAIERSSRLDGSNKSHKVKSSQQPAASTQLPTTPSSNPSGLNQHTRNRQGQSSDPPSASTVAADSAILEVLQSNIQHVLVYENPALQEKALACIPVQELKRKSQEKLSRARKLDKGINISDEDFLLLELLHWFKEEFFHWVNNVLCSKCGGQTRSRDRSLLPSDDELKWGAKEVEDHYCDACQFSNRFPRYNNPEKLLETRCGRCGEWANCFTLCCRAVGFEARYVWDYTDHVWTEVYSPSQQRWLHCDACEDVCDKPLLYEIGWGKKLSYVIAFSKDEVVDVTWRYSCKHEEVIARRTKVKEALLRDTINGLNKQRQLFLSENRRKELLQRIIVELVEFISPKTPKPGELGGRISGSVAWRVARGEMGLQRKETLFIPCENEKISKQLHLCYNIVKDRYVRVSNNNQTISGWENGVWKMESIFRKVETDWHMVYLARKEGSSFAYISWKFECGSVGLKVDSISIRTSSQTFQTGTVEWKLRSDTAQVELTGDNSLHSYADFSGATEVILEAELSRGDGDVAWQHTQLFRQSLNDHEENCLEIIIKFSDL

[9] = biological target: cysteines in MDA-MB-231 and Ramos cells (Homo sapiens, UniProt Q86UV5); assay: as above; conditions: 200 μM, insitu, ramos
[10] = anti-CD3, anti-CD28 stimulation, 8 h

COC(=O)/C=C/C(=O)OC [DMF, dimethyl fumarate]
blockade of T cell activation (primary human T cells; 10 μM): marginal/negligible
blockade of T cell activation (primary human T cells; 25 μM): partial
blockade of T cell activation (primary human T cells; 50 μM): near-complete inhibition
expression of CD25 (primary human T cells; [10]): blocked
expression of CD69 (primary human T cells; [10]): blocked
inhibitory effect on T cell activation (primary human T cells; drug added six hours after stimulation): completely ablated
inhibitory effect on T cell activation (primary human T cells; drug added two hours after stimulation): reduced
interaction between PKCθ and CD28 (PKCθ-CD28 interaction): blocked

O=C(CCl)N1CCN(S(=O)(=O)c2ccccc2F)CC1 [compound 10]
isoTOP-ABPP ratio, cysteine Q13867_C73 [1]: 4.2
isoTOP-ABPP ratio, cysteine Q5T1V6_C414 [2]: 11.3
isoTOP-ABPP ratio, cysteine Q8IV53_C174 [3]: 5.0

Cn1cc(S(=O)(=O)N2CCOCC2)cc1C(=O)NC(=O)CCl [compound 11]
isoTOP-ABPP ratio, cysteine Q9P0K7_C973 [4]: 0.8

O=C(CCl)NCCc1c[nH]c2ccccc12 [compound 13]
isoTOP-ABPP ratio, cysteine P53992_C78 [5]: 0.7
isoTOP-ABPP ratio, cysteine Q9UHQ1_C99 [6]: 20.0

CC(C)CCOCCNC(=O)CCl [compound 27]
reactivity profile of liganded cysteine Q8WUM4_C90 with fragment electrophile (isoTOP-ABPP ratio) [7]: 0.6

O=C(CCl)N1CCN(CC(=O)N2CCOCC2)CC1 [compound 29]
reactivity profile of liganded cysteine Q96IV0_C309 with fragment electrophile (isoTOP-ABPP ratio) [8]: 3.0

C=CC(=O)N(Cc1cccnc1)c1cc(C(F)(F)F)cc(C(F)(F)F)c1 [compound 31]
isoTOP-ABPP ratio, Q86UV5_C39 [9]: 1.3
